From PMC5650372 (Oncotarget, 2017) come the findings set out here.

In test [1] the test system is panel of 123 cancer cell lines. Nature of the test: Proliferation assay, whole panel. To be noted: Homo sapiens; range over 123 cell lines; read-out: GI50 values across the cancer cell line panel. In kind it is cell-based. The protocol: Proliferation assays were performed as previously described. […] The concentration of compound required for a 2-fold induction of Caspase was determined (CalX).

Test [2] has as its system NCI-H1975 and SW1573 cells. As to the kind of experiment: Clonogenic assay alone or with etoposide. In kind it is cell-based, human. The procedure:
Media were changed every three days. Plates were incubated for a total of about two weeks then fixed and stained using the DIFF QUIK staining kit. Colonies were imaged and counted.

In test [3] the test system is ATM-proficient cell lines (MDA-MB-231, MCF7, CAL51, HCC1937). As to the kind of experiment: Colony-formation assay. In kind it is cell-based, human. To be noted: versus ATM-deficient HCC1187. The protocol:
MCF7, Cal51, MDA-MB-231, H1937, MDA-MB-175VII and HCC1187 human breast cancer cell lines were plated at 2000 cells per well in 6-well plates and HCC1500 breast cancer cell line was plated at 10,000 cells per well in 6-well plates and cultured overnight. Cells were then treated with compounds at indicated concentrations. Media and compounds were changed every three days. Plates were incubated for a total of about two weeks then fixed and stained using the DIFF QUIK staining kit (Microptic, Barcelona, Spain). Colonies were imaged and counted.

The target of test [4] is T1, DNA-PKcs, XRCC4 and DNA ligase IV on DNA (Homo sapiens, UniProt P78527).
T1 construct: endogenous in cells; host or cells: MCF7 nuclear extract
As to the kind of experiment: DNA end binding assay (MCF7 nuclear extract). In kind it is biochemical. To be noted: 5 μM, MCF7 nuclear extract, 10, 30, 60 minutes. From the text: One kb of DNA fragment, including an EcoRI sequence in the middle, was amplified by PCR using pEGFP as a template and a pair of biotinylated EGFP primers (5′-biotin-[…]-3′ and 5′-biotin-[…]-3′: Valuegene, San Diego, CA). The amplified DNA fragment was cleaved by EcoRI to produce two 0.5 kb biotinylated DNA fragments, and was purified using the QIAquick PCR purification kit (Qiagen). […] An aliquot of the reaction was removed at each time point to separate the supernatant and the beads. The supernatant was subjected to SDS-PAGE and immunoblotting with indicated antibodies. The beads were washed twice with 250 μL of IP buffer (25 mM Hepes-KOH, pH 7.5, 100 mM NaCl, 20% glycerol, 5 mM EDTA, 1 mM DTT, 0.05% Nonidet P-40, 10 mM NaF, and protease inhibitor mixture) and subjected to SDS-PAGE and immunoblotting with indicated antibodies.

Test [5] has as its system NHEJ activity. As to the kind of experiment: Reconstituted cell-free NHEJ assay (MCF7 nuclear extract). In kind it is biochemical, human. The protocol:
MCF7 human breast cancer cells (5-10 x 10^7 each) were incubated in 5 pellet volumes of cold hypotonic buffer (10 mM Hepes-KOH, pH 7.5, 1.5 mM MgCl2, 5 mM KCl, and 0.5 mM DTT) for 20 minutes and were homogenized in a tight-fitting glass dounce homogenizer for 10-20 strokes. The nuclei were then collected by low-speed centrifugation and nuclear proteins were extracted by high-salt buffer (50 mM Tris-HCl, pH 7.5, 1 M KCl, 2 mM EDTA, 1 mM DTT, and protease inhibitors). The extracted nuclear proteins were dialyzed against 1 L of dialysis buffer (20 mM Tris-HCl, pH 8.0, 20% glycerol, 0.1 M KOAc, 0.5 mM EDTA, and 1 mM DTT) for 1 hour and were used for the in vitro NHEJ assay.
Nuclear protein (10-20 μg) prepared above was pre-treated with compounds as indicated on ice for 15 minutes. Twenty-five nanograms of EcoRI-digested pBluescript DNA (Stratagene, La Jolla, CA) were then added and the mixture was adjusted to 20 μL final volume in NHEJ buffer (50 mM Hepes-KOH pH 8.0, 40 mM KOAc, 1 mM Mg(OAc)2, 1 mM ATP, 0.1 mg/mL BSA, and 1 mM DTT). After incubation at 25°C for 60 minutes, the reaction was terminated by incubation with 1 μg/mL RNase A for 10 minutes followed by treatment with 2 mg/mL Protease K in 0.5% SDS at 55°C for 30 minutes. The reactions were run onto 0.8% agarose and the gel was stained with Sybr Green (S756, Invitrogen, Carlsbad, CA). For Western blots, an aliquot of the same reaction mixture described above was subjected to SDS-PAGE, transferred to the PVDF membrane, and immunoblotted with indicated antibodies.

In test [6] the test system is pDNA-PK S2056 in HT29 and MDA-MB-436 cells. As to the kind of experiment: Immunoblotting of intact cells with bleomycin. In kind it is cell-based, human. To be noted: 5 μM with 1.5 mU/mL bleomycin, 2 or 12 hours. The procedure:
The cell lysates were subjected to SDS-PAGE and immunoblotting with indicated antibodies. […] The pDNA-PK bands were quantified by Odyssey imaging software (LI-COR, Lincoln, NE) and normalized to total DNA-PK. IC50 values were determined by Excelfit (London, UK).
Background: In western blotting, separated proteins are transferred to a membrane and probed.

For test [7], the system named is pAKT S473 in NCI-H441 cells. As to the kind of experiment: Western blot quantitation of pAKT S473 (mTORC2 biomarker). It counts as cell-based. To be noted: Homo sapiens; NCI-H441, presence of bleomycin, 2 hrs, n=3; read-out: IC50 of pAKT S473 inhibition.
In test [8] the test system is pATM S1981 and pNbs1 S343 in HT29 and MDA-MB-436 cells. Nature of the test: Immunoblotting of intact cells with bleomycin. In kind it is cell-based, human. The note with it: 5 μM with 1.5 mU/mL bleomycin, 2 or 12 hours.

As for `CCN1C(=O)CNc2ncc(-c3ccc(-c4nc[nH]n4)nc3C)nc21` [CC-115, 1-ethyl-7-(2-methyl-6-(1H-1,2,4-triazol-3-yl)pyridin-3yl)-3,4-dihydropyrazino[2,3-b]pyrazin-2(1H)-one], in test [1], the GI50 was 15 to 1770 nM. In test [2] (0.1 μM compound, 4 hours), the “combination with 6.8 μM etoposide on colony formation greater than additive” value is recorded as “not”. In addition, the “combination with 6.8 μM etoposide on colony formation” value in test [2] (10 μM compound, 4 hours) is “synergistic effect”. Besides, in test [2] (4 hours treatment alone), the “effect on cell survival, single agent” value is listed as “minimal effect on cell survival”. The “ATM-proficient cell lines less sensitive to inhibition of colony formation” value in test [3] is on record as 100 fold. Besides, the “DNA-PKcs, XRCC4 and DNA ligase IV bound to DNA over time” value in test [4] is listed as “retained from 10 minutes through the end of the reaction at 60 minutes”. Moreover, the “inhibition of NHEJ activity, cell-free” value in test [5] (0.5 μM) is recorded as “Partial inhibition”; in test [5] (5 μM), “complete inhibition”. Besides, in test [6], the “DNA-PK activity (pDNA-PK S2056)” value was “significantly inhibited”. In addition, the IC50 in test [7] worked out at 136 ± 62 nM. For the same compound, in test [8], the “ATM activity (pATM S1981 and pNbs1 S343)” value is listed as “significantly inhibited”.

Usually GI50 stands for the concentration at which growth is held to half of that of the control. By IC50 is commonly meant the point on the concentration scale where inhibition reaches its midpoint.
